Test systems include CCRF-CEM leukemia; HCT-116 colon; EKVX NSCLC; DU-145 prostate; PC-3 prostate; HOP-92 NSCLC; MCF7 breast; OVCAR-4 ovarian; NCI-H226 lung; RPMI-8226 leukemia.
Assay in all cases: inhibition of tumour cell growth, NCI panel, 48 h

The structures appear in SMILES notation. Where “and” joins values, the source holds several entries; their conditions need not be identical. Equal values may be shown once.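 Grown in 96-well plates, cells were treated for 48 hours with each compound at five concentrations. Insufficient inhibition: endpoint recorded as highest concentration tested. At the GI50, growth is halved. TGI: concentration producing complete growth inhibition.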

8 compounds from PubChem BioAssay (NCI) can be followed below.

On to `CN(C)CCNc1ccc2ncn3c4ccc(O)cc4c(=O)c1c23`, for which the TGI in the assay on CCRF-CEM leukemia came out at 15.3 µM; in the assay on HCT-116 colon, 11.5 µM; in the assay with EKVX NSCLC it was 17.5 µM; with DU-145 prostate, 10.8 µM; in the assay on PC-3 prostate, 10.8 µM; in the assay on HOP-92 NSCLC, 13.8 µM. In addition, the TGI in the assay with MCF7 breast stood at 4.91 µM; in the assay on OVCAR-4 ovarian, 4.89 µM; in the assay on NCI-H226 lung it was 3.47 µM; with RPMI-8226 leukemia it was 13.1 µM.
Take `COc1cc(CCC[P+](c2ccccc2)(c2ccccc2)c2ccccc2)c(OC)c2c1OCO2`: the GI50 in the assay with CCRF-CEM leukemia is 1.61 µM; with HCT-116 colon, 0.989 µM; in the assay on EKVX NSCLC it was 2.83 µM; with DU-145 prostate, 3.21 µM; in the assay on PC-3 prostate it was 1.55 µM; with HOP-92 NSCLC, 1.15 µM. The GI50 with MCF7 breast was 1.82 µM; with OVCAR-4 ovarian it was 1.08 µM; in the assay on NCI-H226 lung, 3.13 µM; in the assay on RPMI-8226 leukemia it was 0.283 µM. Further, the TGI is > 100 µM in the assay with CCRF-CEM leukemia; 16.2 µM in the assay with HCT-116 colon; 35.2 µM in the assay on EKVX NSCLC; 74.5 µM with DU-145 prostate; > 100 µM in the assay on PC-3 prostate; 6.88 µM in the assay with HOP-92 NSCLC. Besides, the TGI in the assay with MCF7 breast was found to be 12.9 µM; with OVCAR-4 ovarian it was 16.1 µM; with NCI-H226 lung, 21.3 µM; in the assay on RPMI-8226 leukemia it was 1.87 µM.
With `NC(=O)CC1OC(=O)Cc2cc3c(c(O)c21)C(=O)c1c(O)cccc1C3=O` (centres undefined), the TGI with CCRF-CEM leukemia, with HCT-116 colon, with EKVX NSCLC, in the assay with DU-145 prostate, with PC-3 prostate and in the assay on HOP-92 NSCLC was > 100 µM throughout. Further, the TGI with MCF7 breast, in the assay with OVCAR-4 ovarian and in the assay on NCI-H226 lung was > 100 µM in each case.
On to `CC1SC(c2ccccc2Cl)N(NC(=O)C(O)c2ccccc2)C1=O` (centres undefined), for which the GI50 in the assay on CCRF-CEM leukemia is > 100 µM; with HCT-116 colon, 96.1 µM; in the assay on EKVX NSCLC, > 100 µM; in the assay on DU-145 prostate it was > 100 µM; in the assay with PC-3 prostate it was 45.6 µM; in the assay with HOP-92 NSCLC, > 100 µM. In addition, the GI50 with MCF7 breast was 54.6 µM; with OVCAR-4 ovarian, > 100 µM; in the assay with NCI-H226 lung, > 100 µM; in the assay on RPMI-8226 leukemia, 45 µM. For the same compound, the TGI in the assay with CCRF-CEM leukemia, in the assay on HCT-116 colon, in the assay on EKVX NSCLC, in the assay on DU-145 prostate, in the assay on PC-3 prostate and with HOP-92 NSCLC was > 100 µM in each case. The TGI with MCF7 breast, in the assay on OVCAR-4 ovarian, in the assay with NCI-H226 lung and in the assay on RPMI-8226 leukemia was > 100 µM in each case.
Regarding `COC(=O)/C=C1/SC(=Nc2cccc(Cl)c2)N(CCc2c[nH]c3ccc(O)cc23)C1=O`, the GI50 with CCRF-CEM leukemia was 0.931 µM; in the assay with HCT-116 colon, 1.18 µM; in the assay on EKVX NSCLC, 2.19 µM; in the assay on DU-145 prostate, 1.86 µM; in the assay on PC-3 prostate, 1.74 µM; in the assay on HOP-92 NSCLC it was 2 µM. The GI50 with MCF7 breast was 1.69 µM; with OVCAR-4 ovarian, 1.4 µM; with NCI-H226 lung, 1.65 µM; in the assay with RPMI-8226 leukemia, 1.24 µM. Besides, the TGI in the assay on CCRF-CEM leukemia is 5.27 µM; in the assay with HCT-116 colon it was 2.71 µM; with EKVX NSCLC, 5.51 µM; in the assay with DU-145 prostate, 4.81 µM; with PC-3 prostate, 3.87 µM; with HOP-92 NSCLC, 4.67 µM. In addition, the TGI stood at 4.73 µM in the assay with MCF7 breast, 4.44 µM with OVCAR-4 ovarian, 3.08 µM in the assay on NCI-H226 lung and 3.98 µM in the assay with RPMI-8226 leukemia.
For `COc1cc(-n2ccnc2-c2ccc3ccccc3c2)cc(OC)c1OC`, the GI50 in the assay on CCRF-CEM leukemia was 0.136 µM; with HCT-116 colon, 0.0382 µM; in the assay on EKVX NSCLC it was 0.481 µM; in the assay on DU-145 prostate, 0.175 µM; in the assay with PC-3 prostate, 0.03 µM; with HOP-92 NSCLC, 3.72 µM. The GI50 with MCF7 breast was < 0.0199 µM; with OVCAR-4 ovarian, 6.32 µM; in the assay on NCI-H226 lung it was 5.7 µM; with RPMI-8226 leukemia it was 0.292 µM. The TGI in the assay on CCRF-CEM leukemia was > 100 µM; with HCT-116 colon, 15.3 µM; in the assay with EKVX NSCLC it was > 72.4 µM; in the assay with DU-145 prostate it was 17.5 µM; in the assay on PC-3 prostate it was > 85.8 µM; with HOP-92 NSCLC, 28.9 µM. Also, the TGI was > 45.8 µM in the assay with MCF7 breast, > 86.2 µM in the assay with OVCAR-4 ovarian, > 53.7 µM in the assay on NCI-H226 lung and 20.6 µM with RPMI-8226 leukemia.
Regarding `CSc1cc([C@@H]2C[C@H]2c2ccc(Cl)cc2)on1`, the GI50 was 20.3 µM with CCRF-CEM leukemia; 17.4 µM with HCT-116 colon; 29.8 µM in the assay on EKVX NSCLC; 19.6 µM in the assay with DU-145 prostate; 16 µM in the assay on PC-3 prostate; 7.97 µM with HOP-92 NSCLC. In addition, the GI50 in the assay with MCF7 breast was 16.3 µM; in the assay on OVCAR-4 ovarian, 31.3 µM; in the assay with NCI-H226 lung, 11.4 µM; in the assay on RPMI-8226 leukemia it was 22.7 µM. Besides, the TGI in the assay on CCRF-CEM leukemia came out at 47.2 µM; with HCT-116 colon it was 67.8 µM; in the assay on EKVX NSCLC, 55.8 µM; in the assay on DU-145 prostate it was 42 µM; in the assay with PC-3 prostate it was 33.6 µM; with HOP-92 NSCLC it was 27.3 µM. The TGI with MCF7 breast is 41 µM; in the assay with OVCAR-4 ovarian it was > 100 µM; in the assay with NCI-H226 lung, 36.8 µM; in the assay on RPMI-8226 leukemia it was 44.8 µM.
In the case of `O=C(O)Cc1cccc2c(=O)cc(-c3ccccc3)oc12`, the GI50 in the assay with CCRF-CEM leukemia was > 49.6 µM and 29.8 µM; in the assay on HCT-116 colon, 294 µM; in the assay on EKVX NSCLC it was 611 µM; with DU-145 prostate, > 250 µM; in the assay on PC-3 prostate, > 955 µM; in the assay on HOP-92 NSCLC, 43.9 µM and 318 µM. The GI50 in the assay with MCF7 breast was 581 µM; with OVCAR-4 ovarian it was 546 µM; in the assay on NCI-H226 lung, 363 µM; with RPMI-8226 leukemia, 388 µM. Also, the TGI was 237 µM and 747 µM in the assay with CCRF-CEM leukemia; 212 µM and > 868 µM with HCT-116 colon; 250 µM and > 1000 µM in the assay with EKVX NSCLC; > 1000 µM in the assay with DU-145 prostate; > 1000 µM with PC-3 prostate; 178 µM and > 948 µM with HOP-92 NSCLC. Further, the TGI in the assay on MCF7 breast is 250 µM and > 1000 µM; in the assay with OVCAR-4 ovarian it was 250 µM and > 1000 µM; in the assay with NCI-H226 lung, 250 µM and > 1000 µM; in the assay with RPMI-8226 leukemia, 250 µM and > 1000 µM.
